This note sets out measurements from patent US20260151327A1, “COSMETIC COMPOSITION FOR SKIN PROTECTION CONTAINING SCUTELLARIA BAICALENSIS EXTRACT AS ACTIVE INGREDIENT” (EVERBIO CO., LTD., priority 2022, published 2026).

Common to all, as to assay type: cell-based
Series [1] is described as follows: Cytotoxicity (CC50) in adipose-derived stem cells, 3 days exposure. The settings on record: human, adipose-derived stem cells (ASCs, ATCC PCS-500-011), benzo[a]pyrene, ASCs exposed for 3 days; read-out: CC50 (50% cytotoxicity concentration). How it is done: (§1) PCS-500-011™ cells (Thermo-Fisher Scientific, USA) were purchased as adipose-derived stem cells (ASCs) used in the experiment, from American Type Culture Collection (ATCC), and subcultured for 3 passages in the MesenPRO RS™ medium and MesenPRO RS™ growth supplement medium (Thermo-Fisher scientific, USA) until the live cells reached 80% to 90% confluency.
(§2) Specifically, the cell stock vial was thawed in a 37° C. water bath and suspended in a medium with an equal volume of the cell stock vial, and then the suspension was transferred to a tube and centrifuged (2,000 rpm, 2 min, 4° C.), followed by removal of the supernatant. The phosphate buffered saline (PBS) was added to the cell pellets remaining after the removal of the supernatant, and then the above procedures were repeated three times. Thereafter, the resultant product was placed in a medium where the cell pellets were to be grown, followed by gentle pipetting up and down, thereby preparing a cell suspension. The cell suspension was dispensed into a flask or dish containing an appropriate amount of medium. The cells were subcultured when the cells reached 70% to 80% confluency on the bottom.
(§3) PBS, media, and trypsin-EDTA were warmed at 37° C. for 30 minutes before use. The supernatant medium was removed by suction, and PBS was dispensed. […]

Series [2] deals with adipose-derived stem cells (ASCs). The series is described as above. The settings on record: benzo[a]pyrene, ASCs exposed for 3 days; read-out: CC50 (50% cytotoxicity concentration). How it is done:
as §1, §2, §3

Series [3] has the same test system. The series can be described thus: Annexin-V-PI staining and flow cytometry: protection of ASCs against benzo[a]pyrene toxicity. Conditions: human, 50 μM/mL. How it is done:
The adipose-derived stem cell (ASC) protective effect of the Scutellaria baicalensis extract against the cell toxicity of benzo[a]pyrene was analyzed as below.
The adipose-derived stem cells cultured by the method in Example 1-1 were divided into i) a group treated with 50 μM/mL benzo[a]pyrene (BP50), ii) a group treated with 50 μM/mL benzo[a]pyrene and 200 μL/mL Scutellaria baicalensis extract (SBE200+BP50), and iii) a group treated with 50 μM/mL benzo[a]pyrene and 400 μL/mL Scutellaria baicalensis extract (SBE400+BP50). To observe cell apoptosis, the cells were stained using Annexin-V-PI dye kit (Invitrogen, USA). Since Annexin-V binds to phosphatidylserine (PS), which was exposed on the outer cell membrane during early apoptosis, early apoptosis can be identified using Annexin-V. Meanwhile, propidium iodide (PI), which binds to the nucleus, stains the nucleus through holes formed in the cell membrane in a state of late apoptosis or necrosis, thereby allowing the identification of late apoptotic or dead cells. […] For result analysis, the cellular viability was measured using a flow cytometer (BD FACSCalibur) and FlowJo 10.6.1 (BD Bioscience), and the results are shown in FIG. 2.
A general note: Flow cytometry measures light scatter and fluorescence of single cells or particles in a stream.

In series [4] the test system is AMP-activated protein kinase (AMPK). The series can be described thus: Lipolysis promoting effect in ASCs, PE-anti-AMPK staining, flow cytometry and AMPK synthesis level. The settings on record: benzo[a]pyrene alone (BP50). How it is done: (§4) AMP-activated protein kinase (AMPK) and hormone sensitive lipase (HSL), most common lipolytic enzymes, were applied to adipose-derived stem cells (ASCs), and the lipids obtained by degradation through AMPK were stained with PE-anti-AMPK (R&D system, USA), and the lipids obtained by degradation through HSL were stained with FITC-anti-HSL (R&D system, USA) for 24 hours. The lipids were washed with PBS, and then analyzed using a flow cytometer (FACSCalibur) and FlowJo v10.6.1 (BD Bioscience, USA), and the results are shown in FIG. 3A.
(§5) The synthesis levels of AMPK and HSL were analyzed and plotted in FIG. 3B.

Series [5] deals with hormone sensitive lipase (HSL). As to the kind of experiment: Lipolysis promoting effect in ASCs, FITC-anti-HSL staining, flow cytometry and HSL synthesis level. Conditions: benzo[a]pyrene alone (BP50). How it is done:
as §4, §5

Series [6] has as its system CCAAT enhancer binding protein alpha (CEBP-α). As to the kind of experiment: mRNA expression level of CEBP-α in ASCs (RT-PCR). Conditions: 50 μM/mL benzo[a]pyrene (BP50) vs control (Con). The procedure: The influence of benzo[a]pyrene and the Scutellaria baicalensis extract on the mRNA expression level of CCAAT enhancer binding protein alpha (CEBP-α), one of the lipolysis promoting genes, was investigated by the method as below.
The adipose-derived stem cells were divided into i) a control group with no treatment (Con), ii) a group treated with 50 μM/mL benzo[a]pyrene (BP50), iii) a group treated with 50 μM/mL benzo[a]pyrene and 200 μL/mL Scutellaria baicalensis extract (SBE200+BP50), and iv) a group treated with 50 μM/mL benzo[a]pyrene and 400 μL/mL Scutellaria baicalensis extract (SBE400+BP50), and the total RNA of each cell group was extracted using […] (GeneAll, Seoul, Korea). RNA was used to synthesize cDNA under the conditions of 1 minute at 95° C. and 35 seconds at 72° C. by using Maxime RT PreMix (iNtRON, Seungnam, Korea). The synthesized cDNA was amplified using the primers shown in Table 1 under the conditions of 15 seconds at 95° C., 30 seconds at 59° C., and 1 minute at 72° C. The amount of cDNA amplification was analyzed using iBright (FL1000, Thermo Fisher Scientific, Waltham, MA, USA) and iBright Analysis software 3.1.3 (Thermo Fisher Scientific, Waltham, MA, MA, USA), and the results are shown in FIG. 5.

SMILES strings stand for the structures.

Regarding `c1ccc2c(c1)cc1ccc3cccc4ccc2c1c34` [benzo[a]pyrene, Benzo[a]pyrene], the CC50 at 3 days in series [1] is 25 µM. Also, the CC50 in series [2] was 50 µM. Besides, in series [3], the cellular viability is listed as 48.1%, the “early apoptotic cell proportion” value was 29.6% and the “late apoptotic cell proportion” value was 51.8%. In addition, the “proportion of cells undergoing lipolysis by AMPK” value in series [4] is listed as 18.72%. Moreover, in series [5], the “proportion of cells undergoing lipolysis by HSL” value is given as 14.92%. Also, the “mRNA expression level of CEBP-α, fold higher than control group” value in series [6] is listed as 4.73 fold.
